Data taken from patent US6680330B2, “Rapamycin dialdehydes” (Wyeth, priority 2001, dated 2004).
Converted amounts (≈) assume the structure as drawn.

Tests used:
Type in all cases: cell-based
[1] = test system: 3T3 (ovarian) tumor cell line; test: Antineoplastic activity, tumor cell growth inhibition (sulforhodamine B), 3T3; conditions: 48 hours; for Antineoplastic Activity IC50: 3T3 cells
Description: (§1) Antineoplastic activity for the compounds of this invention was confirmed by evaluating the antineoplastic activity of representative compounds of this invention (Examples 1-5) against six tumor cell lines in vitro. Briefly, tumor cells from six cell lines were placed in wells of a 96 well microtiter plate. The following tumor cell lines were used: 3T3 (ovarian), 3T3/H2N (ovarian—resistant to cis-platin), A431 (vulva epidermoid origin), SW620 (colon), SKBR3 (breast), and MDA-435 (breast). The tumors cells were grown in the presence of serial dilutions of the compound to be evaluated for 48 hours, and cell growth determined using a colorimetric procedure (sulforhrodamine B). The inhibition of growth was calculated compared to the number of cells at the time of test compound addition.

[2] = test system: A431 (vulva epidermoid origin) tumor cell line; test: Antineoplastic activity, tumor cell growth inhibition (sulforhodamine B), A431; conditions: 48 hours; for Antineoplastic Activity IC50: A431 cells
Description: as §1

[3] = test system: SW620 (colon) tumor cell line; test: Antineoplastic activity, tumor cell growth inhibition (sulforhodamine B), SW620; conditions: 48 hours; for Antineoplastic Activity IC50: SW620 cells
Description: as §1

[4] = test system: 3T3/H2N (ovarian—resistant to cis-platin) tumor cell line; test: Antineoplastic activity, tumor cell growth inhibition (sulforhodamine B), 3T3/H2N; conditions: 3T3/H2N cells, 48 hours
Description: as §1

[5] = test system: MDA-435 (breast) tumor cell line; test: Antineoplastic activity, tumor cell growth inhibition (sulforhodamine B), MDA-435; conditions: MDA435 cells, 48 hours
Description: as §1

[6] = test system: SKBR3 (breast) tumor cell line; test: Antineoplastic activity, tumor cell growth inhibition (sulforhodamine B), SKBR3; conditions: 48 hours; for Antineoplastic Activity IC50: SKBR3 cells
Description: as §1

SH-SY5Y cells = test: Neurite outgrowth (neuroregeneration) test in SH-SY5Y cells; conditions: aphidicolin 5 days, mean ± SEM
Description: The neuroregeneration activity for the compounds of this invention was confirmed in a standard pharmacological test procedure by evaluating rapamycin dialdehyde (Example 1) and rapamycin 29-enol (Example 2), as representative compounds of this invention, against SH-SY5Y cells in vitro [Gold et al., Exp Neurol 147: 269-278, 1997]. Briefly, SH-SY5Y cells were placed in 6-well plate treated with aphidicolin for 5 days followed by the test compounds using 6-well plates. For controls, wells were untreated, or treated with nerve growth factor (NGF) alone. Test wells were treated with NGF plus Example 1 and Example 2, or rapamycin. Cells were photographed at 168 hours. Analysis of neuritic lengths was performed on photographic prints using a Houston Instrument HI-PAD digitizing tablet connected to an IBM XT computer with appropriate software (Bioquant IV, R&M Biometrics, Nashville, Tenn.). Mean values for axonal areas were compared using by ANOVA (STATVIEW, Abacus Concepts, Inc., Berkeley, Calif.). The following table summarizes the results that were obtained.

Row | Compound | Antineoplastic Activity IC50 [2] | Antineoplastic Activity IC50 [3] | Antineoplastic Activity IC50 [5] | Antineoplastic Activity IC50 [6] | IC50 ([2]; Homo sapiens, A-431, A431 cells) | IC50 ([3]; Homo sapiens, SW-620, SW620 cells) | IC50 [5] | IC50 ([6]; Homo sapiens, SK-BR-3, SKBR3 cells) | Antineoplastic Activity IC50 [1] | Antineoplastic Activity IC50 [4] | Mean Neurite Length after 168 h (SH-SY5Y cells; test compound plus NGF) | IC50 ([1]; Mus musculus, NIH3T3, 3T3 cells) | IC50 [4] | Mean Neurite Length after 168 h (SH-SY5Y cells; NGF alone)
1 | 42-O-(2-Hydroxy)Ethyl Rapamycin 29-enol [Example V] | >5 µg/mL | >5 µg/mL | >5 µg/mL | 2.69 µg/mL |  |  |  |  | >5 µg/mL | 4.96 µg/mL |  |  |  | 
2 | NGF: nerve growth factor, used alone as control and together with test compounds |  |  |  |  |  |  |  |  |  |  |  |  |  | 196.5 ± 7.7 (n = 112) μm
3 | Rapamycin 29-Enol [Example II] | >5 µg/mL | >5 µg/mL | >5 µg/mL | >5 µg/mL |  |  |  |  | >5 µg/mL | >5 µg/mL | 239.7 ± 10.0 (n = 155) μm |  |  | 

Second part, led by results:

Row | Antineoplastic Activity IC50 [2] | Antineoplastic Activity IC50 [3] | Antineoplastic Activity IC50 [5] | Antineoplastic Activity IC50 [6] | IC50 ([2]; Homo sapiens, A-431, A431 cells) | IC50 ([3]; Homo sapiens, SW-620, SW620 cells) | IC50 [5] | IC50 ([6]; Homo sapiens, SK-BR-3, SKBR3 cells) | Compound | Antineoplastic Activity IC50 [1] | Antineoplastic Activity IC50 [4] | Mean Neurite Length after 168 h (SH-SY5Y cells; test compound plus NGF) | IC50 ([1]; Mus musculus, NIH3T3, 3T3 cells) | IC50 [4] | Mean Neurite Length after 168 h (SH-SY5Y cells; NGF alone)
4 | 2.64 µg/mL | 3.04 µg/mL | 1.1 µg/mL | 0.36 µg/mL |  |  |  |  | 42-O-(2-Hydroxy)Ethyl Rapamycin Dialdehyde [IV] | 1.5 µg/mL | 0.72 µg/mL |  |  |  | 
5 |  |  |  |  | 0.91 µg/mL (≈ 0.962 µM) | 1.41 µg/mL (≈ 1.49 µM) | 1.23 µg/mL (≈ 1.3 µM) | 0.52 µg/mL (≈ 0.55 µM) | CO[C@@H](C[C@@H]1CC[C@@H](C)[C@](O)(C(=O)C(=O)N2CCCC[C@H]2C(=O)OC(CC(=O)[C@H](C)/C=C(\C)[C@@H](O)[C@@H](OC)C(=O)[C@H](C)C[C@H](C)/C=C/C=O)[C@H](C)C[C@@H]2CC[C@@H](O)[C@H](OC)C2)O1)/C(C)=C/C=O (stereo partly drawn) [Example I, Rapamycin Dialdehyde] |  |  | 229.8 ± 9.5 (n = 141) μm | 0.72 µg/mL (≈ 0.761 µM) | 0.68 µg/mL (≈ 0.719 µM) | 
